{"source": "ChEMBL document CHEMBL5506043", "about": "“A β-Carboline Derivate PAD4 Inhibitor Reshapes Neutrophil Phenotype and Improves the Tumor Immune Microenvironment against Triple-Negative Breast Cancer” (J Med Chem, 2024)", "key": {"[1]": {"target": "Protein-arginine deiminase type-2 (Homo sapiens, UniProt Q9Y2J8)", "sequence (Q9Y2J8 whole entry)": "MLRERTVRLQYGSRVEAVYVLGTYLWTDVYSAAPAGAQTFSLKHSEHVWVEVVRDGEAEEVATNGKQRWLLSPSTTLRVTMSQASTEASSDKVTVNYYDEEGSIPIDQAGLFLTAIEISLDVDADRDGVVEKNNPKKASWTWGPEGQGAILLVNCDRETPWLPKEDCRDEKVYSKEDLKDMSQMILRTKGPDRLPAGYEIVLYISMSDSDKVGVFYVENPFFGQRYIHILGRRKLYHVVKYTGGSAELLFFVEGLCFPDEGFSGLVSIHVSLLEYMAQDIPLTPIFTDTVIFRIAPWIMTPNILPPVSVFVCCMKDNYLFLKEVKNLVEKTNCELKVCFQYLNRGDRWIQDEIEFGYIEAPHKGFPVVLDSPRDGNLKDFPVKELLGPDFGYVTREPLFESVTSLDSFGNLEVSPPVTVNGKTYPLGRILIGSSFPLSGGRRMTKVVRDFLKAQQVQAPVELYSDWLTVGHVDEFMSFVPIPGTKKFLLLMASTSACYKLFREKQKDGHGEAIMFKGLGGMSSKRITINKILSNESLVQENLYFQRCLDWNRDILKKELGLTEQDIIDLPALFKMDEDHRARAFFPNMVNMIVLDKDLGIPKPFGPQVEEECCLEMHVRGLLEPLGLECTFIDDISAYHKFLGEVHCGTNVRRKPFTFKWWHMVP", "experiment": "Inhibition of PAD2 (unknown origin) using Nalpha-benzoyl-L-arginine ethyl ester as substrate preincubated for 60 mins followed by substrate addition and measured after 90 mins by colorimetric analysis"}, "[2]": {"target": "Protein-arginine deiminase type-4 (Homo sapiens, UniProt Q9UM07)", "sequence (Q9UM07 whole entry)": "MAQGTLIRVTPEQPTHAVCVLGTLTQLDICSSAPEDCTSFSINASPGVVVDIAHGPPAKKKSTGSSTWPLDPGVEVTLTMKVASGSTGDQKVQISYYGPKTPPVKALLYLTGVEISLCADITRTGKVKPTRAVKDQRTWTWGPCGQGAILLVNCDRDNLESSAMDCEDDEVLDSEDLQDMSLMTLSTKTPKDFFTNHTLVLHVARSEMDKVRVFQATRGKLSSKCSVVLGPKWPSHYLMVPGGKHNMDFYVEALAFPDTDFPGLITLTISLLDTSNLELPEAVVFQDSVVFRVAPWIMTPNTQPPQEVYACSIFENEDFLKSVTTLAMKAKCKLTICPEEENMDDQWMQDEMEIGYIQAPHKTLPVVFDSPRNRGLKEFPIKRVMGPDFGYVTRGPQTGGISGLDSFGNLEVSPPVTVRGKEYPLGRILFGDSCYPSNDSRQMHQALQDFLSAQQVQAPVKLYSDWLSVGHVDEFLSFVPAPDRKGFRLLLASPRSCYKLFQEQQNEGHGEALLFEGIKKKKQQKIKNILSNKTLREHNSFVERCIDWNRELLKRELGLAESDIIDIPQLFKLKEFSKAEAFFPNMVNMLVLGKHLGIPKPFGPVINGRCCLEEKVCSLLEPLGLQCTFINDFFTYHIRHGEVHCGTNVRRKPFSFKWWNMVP", "experiment": "Inhibition of PAD4 (unknown origin) using Nalpha-benzoyl-L-arginine ethyl ester as substrate preincubated for 60 mins followed by substrate addition and measured after 90 mins by colorimetric analysis"}, "[3]": {"system": "4T1", "experiment": "Antiproliferative activity against mouse 4T1 cells assessed as inhibition of cell growth incubated for 48 hrs by MTT assay", "format": "functional, cell-based", "conditions": "4T1, 48 h"}, "[4]": {"system": "MDA-MB-468", "experiment": "Antiproliferative activity against human MDA-MB-468 cells assessed as inhibition of cell growth incubated for 48 hrs by MTT assay", "format": "functional, cell-based", "conditions": "MDA-MB-468, 48 h"}, "[5]": {"experiment": "Cytotoxicity against human MCF-10A cells assessed as inhibition of cell growth incubated for 48 hrs by MTT assay", "format": "toxicity, cell-based"}, "[6]": {"target": "Protein-arginine deiminase type-4 (Mus musculus) (UniProt Q9Z183)", "sequence (Q9Z183 whole entry)": "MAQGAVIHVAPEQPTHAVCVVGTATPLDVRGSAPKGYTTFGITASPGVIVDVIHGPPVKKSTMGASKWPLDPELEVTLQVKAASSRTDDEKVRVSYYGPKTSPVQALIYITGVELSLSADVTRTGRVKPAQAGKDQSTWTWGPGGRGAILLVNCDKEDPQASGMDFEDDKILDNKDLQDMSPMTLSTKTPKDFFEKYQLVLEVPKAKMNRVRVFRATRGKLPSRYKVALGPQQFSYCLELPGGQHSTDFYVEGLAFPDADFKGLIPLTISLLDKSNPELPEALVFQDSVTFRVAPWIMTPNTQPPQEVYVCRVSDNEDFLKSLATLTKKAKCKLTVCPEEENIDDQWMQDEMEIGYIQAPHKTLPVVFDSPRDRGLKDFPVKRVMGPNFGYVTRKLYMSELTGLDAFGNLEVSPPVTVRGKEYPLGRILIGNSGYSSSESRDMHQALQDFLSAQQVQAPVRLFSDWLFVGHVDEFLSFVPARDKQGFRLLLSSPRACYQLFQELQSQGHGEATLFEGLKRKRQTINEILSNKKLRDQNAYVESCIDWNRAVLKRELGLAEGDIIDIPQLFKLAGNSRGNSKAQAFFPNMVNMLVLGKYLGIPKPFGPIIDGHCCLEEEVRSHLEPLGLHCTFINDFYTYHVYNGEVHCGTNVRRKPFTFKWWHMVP", "experiment": "Inhibition of PAD4 in BALB/c mouse bone marrow neutrophils assessed as reduction in histone H3 citrullination at 2 uM preincubated for 2 hrs followed by calcium ionophore A23187 addition and measured after 2 hrs by Hoechst 33342/Ly6G staining based laser confocal microscopic analysis", "conditions": "Neutrophil, time 4.0 hrs"}, "[7]": {"target": "Protein-arginine deiminase type-4 (Mus musculus) (UniProt Q9Z183)", "experiment": "Inhibition of PAD4 in BALB/c mouse bone marrow neutrophils assessed as reduction in neutrophil extracellular traps formation at 2 uM preincubated for 2 hrs followed by calcium ionophore A23187 addition and measured after 2 hrs by Hoechst 33342/Ly6G staining based laser confocal microscopic analysis", "format": "tissue-based", "conditions": "time 4.0 hrs"}, "[8]": {"experiment": "Tmax in male Sprague-Dawley rat at 3.5 mg/kg, iv by LC-MS/MS analysis", "format": "ADME, organism-based", "conditions": "in vivo"}, "[9]": {"experiment": "Terminal half life in male Sprague-Dawley rat at 3.5 mg/kg, iv by LC-MS/MS analysis", "format": "ADME, organism-based", "conditions": "in vivo"}, "[10]": {"experiment": "Cmax in male Sprague-Dawley rat at 3.5 mg/kg, iv by LC-MS/MS analysis", "format": "ADME, organism-based", "conditions": "in vivo"}, "[11]": {"experiment": "AUC (0 to t) in male Sprague-Dawley rat at 3.5 mg/kg, iv by LC-MS/MS analysis", "format": "ADME, organism-based", "conditions": "in vivo"}, "[12]": {"experiment": "AUC (0 to infinity) in male Sprague-Dawley rat at 3.5 mg/kg, iv by LC-MS/MS analysis", "format": "ADME, organism-based", "conditions": "in vivo"}, "[13]": {"experiment": "Antitumor activity against mouse orthotopic 4T1-Luc cells implanted in female BALB/c mouse assessed as tumor growth inhibition at 10 mg/kg, iv administered via tail vein every 2 days for 9 times for 17 days and measured every 2 days relative to control", "format": "functional", "conditions": "408 h, time 17 day, read-out: TGI"}, "[14]": {"experiment": "Toxicity in female BALB/c mouse implanted with mouse orthotopic 4T1-Luc cells assessed as reduction in body weight at 10 mg/kg, iv administered via tail vein every 2 days for 9 times for 17 days and measured every 2 days", "format": "organism-based", "conditions": "in vivo, 408 h, time 17 day"}, "[15]": {"experiment": "Toxicity in female BALB/c mouse implanted with mouse orthotopic 4T1-Luc cells assessed as reduction in liver weight at 10 mg/kg, iv administered via tail vein every 2 days for 9 times for 17 days", "format": "organism-based", "conditions": "in vivo, 408 h, time 17 day"}, "[16]": {"experiment": "Toxicity in female BALB/c mouse implanted with mouse orthotopic 4T1-Luc cells assessed as reduction in kidney weight at 10 mg/kg, iv administered via tail vein every 2 days for 9 times for 17 days", "format": "organism-based", "conditions": "in vivo, 408 h, time 17 day"}, "[17]": {"system": "Mus musculus", "experiment": "In vivo inhibition of PAD4 in female BALB/c mouse implanted with mouse orthotopic 4T1-Luc cells assessed as inhibition of histone H3 citrullination in tumor at 10 mg/kg, iv administered via tail vein every 2 days for 9 times for 17 days by immunohistochemical staining based analysis", "format": "functional, organism-based", "conditions": "time 17.0 day"}, "[18]": {"system": "Neutrophil", "experiment": "In vivo inhibition of PAD4 in female BALB/c mouse implanted with mouse orthotopic 4T1-Luc cells assessed as inhibition of neutrophil extracellular traps formation in tumor at 10 mg/kg, iv administered via tail vein every 2 days for 9 times for 17 days by immunohistochemical staining based analysis", "format": "functional, organism-based", "conditions": "time 17.0 day"}, "[19]": {"experiment": "Antitumor activity against mouse orthotopic 4T1-Luc cells implanted in female BALB/c mouse assessed as tumor growth inhibition at 1.16 mg/kg, iv administered via tail vein every 2 days for 9 times for 17 days and measured every 2 days relative to control", "format": "functional", "conditions": "408 h, time 17 day, read-out: TGI"}, "[20]": {"experiment": "Toxicity in female BALB/c mouse implanted with mouse orthotopic 4T1-Luc cells assessed as reduction in body weight at 1.16 mg/kg, iv administered via tail vein every 2 days for 9 times for 17 days and measured every 2 days", "format": "organism-based", "conditions": "in vivo, 408 h, time 17 day"}, "[21]": {"target": "T1, Protein-arginine deiminase type-3 (Homo sapiens) (UniProt Q9ULW8)", "T1 sequence (whole entry)": "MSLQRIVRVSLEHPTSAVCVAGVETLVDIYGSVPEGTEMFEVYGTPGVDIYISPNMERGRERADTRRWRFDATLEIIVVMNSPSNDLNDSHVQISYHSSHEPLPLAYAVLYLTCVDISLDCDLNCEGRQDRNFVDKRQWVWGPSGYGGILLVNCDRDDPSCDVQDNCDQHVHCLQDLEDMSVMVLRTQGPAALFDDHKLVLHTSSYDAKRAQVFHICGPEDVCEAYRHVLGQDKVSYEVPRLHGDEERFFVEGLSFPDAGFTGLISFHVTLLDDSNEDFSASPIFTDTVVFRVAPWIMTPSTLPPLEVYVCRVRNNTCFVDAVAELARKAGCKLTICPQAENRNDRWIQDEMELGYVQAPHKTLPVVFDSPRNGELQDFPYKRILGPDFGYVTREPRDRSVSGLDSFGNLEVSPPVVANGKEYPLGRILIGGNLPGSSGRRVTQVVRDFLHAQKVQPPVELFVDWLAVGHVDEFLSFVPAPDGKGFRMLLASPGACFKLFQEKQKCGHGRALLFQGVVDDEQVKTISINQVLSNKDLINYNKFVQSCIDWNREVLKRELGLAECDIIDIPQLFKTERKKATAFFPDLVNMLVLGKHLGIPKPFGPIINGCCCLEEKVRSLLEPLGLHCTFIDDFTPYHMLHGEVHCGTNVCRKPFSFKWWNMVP", "experiment": "Inhibition of 6His-tagged recombinant human PAD3 expressed in Escherichia coli BL21-DE3 pLysS cells using N-benzoylated arginine ethyl ester hydrochloride as substrate assessed as ratio of Kinact/Ki preincubated for 30 mins followed by substrate addition and measured after 15 mins by […] assay", "conditions": "time 45.0 min"}}, "note": "pIC50: −log10 of the molar value. Structures can show the parent of a compound that is named as a salt. Calls of active or inactive are those of the source. The rule behind the calls is not given here.", "data": [{"compound": "CN(C)c1ccc2cc(C(=O)N[C@@H](CCCNC(=N)CCl)C(=O)NCc3ccccc3)ccc2c1", "values": [{"measurement": "pIC50", "setting": "[1]", "value": 5.28}, {"measurement": "pIC50", "setting": "[2]", "value": 5.45}, {"measurement": "pIC50", "setting": "[3]", "value": 5.13}, {"measurement": "pIC50", "setting": "[4]", "value": 5.29}, {"measurement": "IC50 at 48 h", "setting": "[5]", "value": 4.3, "unit": "µM"}, {"measurement": "inhibition", "setting": "[6]", "value": "Active"}, {"measurement": "inhibition", "setting": "[7]", "value": "Active"}, {"measurement": "Tmax", "setting": "[8]", "value": 4.8, "unit": "min"}, {"measurement": "beta t1/2", "setting": "[9]", "value": 7.8, "unit": "min"}, {"measurement": "Cmax", "setting": "[10]", "value": 251.2, "unit": "ng/mL"}, {"measurement": "AUC(0-t)", "setting": "[11]", "value": 14.9, "unit": "ng·h/mL"}, {"measurement": "AUC", "setting": "[12]", "value": 17214.17, "unit": "ng·h/mL"}, {"measurement": "inhibition in vivo at 10 mg/kg", "setting": "[13]", "value": 36.2, "unit": "%"}, {"measurement": "Activity", "setting": "[14]", "value": "Non-Toxic"}, {"measurement": "Activity", "setting": "[15]", "value": "Toxic"}, {"measurement": "Activity", "setting": "[16]", "value": "Toxic"}, {"measurement": "inhibition", "setting": "[17]", "value": "Active"}, {"measurement": "inhibition", "setting": "[18]", "value": "Active"}]}, {"compound": "COc1cccc2c1C(=O)c1c(O)c3c(c(O)c1C2=O)C[C@@](O)(C(=O)CO)C[C@@H]3O[C@H]1C[C@H](N)[C@H](O)[C@H](C)O1", "note": "[DOXORUBICIN HYDROCHLORIDE]", "values": [{"measurement": "inhibition in vivo at 1.16 mg/kg", "setting": "[19]", "value": 54.6, "unit": "%"}, {"measurement": "Activity", "setting": "[20]", "value": "Non-Toxic"}]}, {"compound": "N=C(CCl)NCCCC1NC(=O)N(Cc2cccc(-c3ccccc3Cl)c2)C1=O", "note": "(stereo unspecified)", "values": [{"measurement": "Ratio", "setting": "[21]", "value": 15600, "unit": "min⁻¹ M⁻¹"}]}]}
